Data on one molecule can be found in ChEMBL document CHEMBL4425158, “Synthesis, structure-activity relationships and biological evaluation of 4,5,6,7-tetrahydropyrazolopyrazines as metabotropic glutamate receptor 5 negative allosteric modulators” (Bioorg Med Chem Lett, 2016).

For orientation: IC50 means the point on the concentration scale where inhibition reaches its midpoint. One may read the efflux ratio as a quotient of directional permeabilities that is used to spot active efflux.

In one data set the target is T1, Cytochrome P450 1A2 (Homo sapiens, UniProt P05177).
T1 sequence (P05177 whole entry): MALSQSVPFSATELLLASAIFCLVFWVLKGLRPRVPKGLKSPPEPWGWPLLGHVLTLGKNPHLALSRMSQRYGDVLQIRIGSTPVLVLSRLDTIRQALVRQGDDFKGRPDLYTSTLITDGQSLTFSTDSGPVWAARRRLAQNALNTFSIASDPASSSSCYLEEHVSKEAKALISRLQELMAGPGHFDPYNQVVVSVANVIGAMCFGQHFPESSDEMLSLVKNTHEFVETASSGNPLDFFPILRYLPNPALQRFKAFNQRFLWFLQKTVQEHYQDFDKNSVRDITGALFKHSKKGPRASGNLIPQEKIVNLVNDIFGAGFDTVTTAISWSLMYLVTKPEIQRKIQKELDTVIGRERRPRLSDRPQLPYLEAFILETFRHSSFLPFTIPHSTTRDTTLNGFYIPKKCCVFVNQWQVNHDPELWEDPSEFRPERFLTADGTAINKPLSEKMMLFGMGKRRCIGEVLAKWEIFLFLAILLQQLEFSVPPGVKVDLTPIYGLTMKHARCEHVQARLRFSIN
In words: Inhibition of CYP1A2 in human liver microsomes using phenacetin as substrate after 10 mins in presence of NADPH by LC/MS/MS analysis. In kind it is ADME.

A further data set deals with T2, Cytochrome P450 2A6 (Homo sapiens, UniProt P11509).
T2 sequence (P11509 whole entry): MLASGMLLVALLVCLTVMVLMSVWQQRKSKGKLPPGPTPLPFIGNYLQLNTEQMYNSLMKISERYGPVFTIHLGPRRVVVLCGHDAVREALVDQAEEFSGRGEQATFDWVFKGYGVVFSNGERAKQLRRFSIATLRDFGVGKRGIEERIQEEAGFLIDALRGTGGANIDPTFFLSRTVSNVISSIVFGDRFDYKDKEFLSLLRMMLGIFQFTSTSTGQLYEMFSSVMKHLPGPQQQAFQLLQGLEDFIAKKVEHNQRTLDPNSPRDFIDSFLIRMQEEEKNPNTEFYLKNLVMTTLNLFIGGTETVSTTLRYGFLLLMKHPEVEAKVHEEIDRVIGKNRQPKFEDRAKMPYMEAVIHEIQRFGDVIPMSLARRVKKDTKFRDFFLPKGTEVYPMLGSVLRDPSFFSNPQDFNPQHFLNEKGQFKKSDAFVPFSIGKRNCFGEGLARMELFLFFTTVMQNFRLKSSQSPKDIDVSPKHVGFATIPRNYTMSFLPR
Briefly: Inhibition of CYP2A6 in human liver microsomes using coumarin as substrate after 10 mins in presence of NADPH by LC/MS/MS analysis. In kind it is ADME. (In general: Microsomes from liver hold many membrane-bound enzymes, among them those of drug oxidation.)

The next data set has as its target Cytochrome P450 2C19 (Homo sapiens, UniProt P33261). In words: Inhibition of CYP2C19 in human liver microsomes using (S)-mephenytoin as substrate after 10 mins in presence of NADPH by LC/MS/MS analysis. Format: ADME.
In data set [1] the target is Metabotropic glutamate receptor 5 (Homo sapiens, UniProt P41594). In words: Negative allosteric modulation of human recombinant mGluR5 expressed in HEK293 cells assessed as L-glutamate-induced intracellular calcium mobilization incubated for 20 mins before L-glutamate addition. Format: functional, cell-based. For orientation: Calcium assays in cells follow changes in intracellular calcium, usually with a dye or a luminescent sensor.

For the next data set, the target named is P-gp (ABCB1) (Homo sapiens, UniProt P08183). Briefly: Substrate activity at P-gp (unknown origin) assessed as efflux ratio. Format: ADME. The following applies: not told.
In data set [2] the target is Voltage-gated inwardly rectifying potassium channel KCNH2 (Homo sapiens, UniProt Q12809). In words: Inhibition of human ERG.
For a further data set, the target named is Cytochrome P450 2C9 (Homo sapiens, UniProt P11712). In words: Inhibition of CYP2C9 in human liver microsomes using diclofenac as substrate after 10 mins in presence of NADPH by LC/MS/MS analysis. Format: ADME.
A short description of data set [3]: Permeability of the compound at pH 7.4 by PAMPA. Format: ADME. As to conditions: read-out: permeability; call rule not given here.
Data set [4] concerns the target T3, Nuclear receptor subfamily 1 group I member 2 (Homo sapiens, UniProt O75469).
T3 sequence (O75469 whole entry): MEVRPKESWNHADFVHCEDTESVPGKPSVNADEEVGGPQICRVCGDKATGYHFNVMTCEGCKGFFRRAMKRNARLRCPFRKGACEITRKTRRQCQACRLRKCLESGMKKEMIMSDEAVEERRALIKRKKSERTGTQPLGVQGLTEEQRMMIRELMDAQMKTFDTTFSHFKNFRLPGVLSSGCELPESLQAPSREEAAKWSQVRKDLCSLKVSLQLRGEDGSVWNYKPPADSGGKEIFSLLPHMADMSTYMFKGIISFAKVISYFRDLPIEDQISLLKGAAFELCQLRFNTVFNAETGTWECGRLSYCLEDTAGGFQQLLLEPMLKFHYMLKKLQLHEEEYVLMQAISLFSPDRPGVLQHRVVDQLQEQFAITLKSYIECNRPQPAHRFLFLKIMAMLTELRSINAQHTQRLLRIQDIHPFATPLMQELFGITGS
Briefly: Induction of human PXR assessed as CYP450 activation. Format: ADME.

For a further data set, the target named is Cytochrome P450 2D6 (Homo sapiens, UniProt P10635). Briefly: Inhibition of CYP2D6 in human liver microsomes using bufuralol as substrate after 10 mins in presence of NADPH by LC/MS/MS analysis. In kind it is ADME.
Chain of Cytochrome P450 2D6 (P10635 whole entry): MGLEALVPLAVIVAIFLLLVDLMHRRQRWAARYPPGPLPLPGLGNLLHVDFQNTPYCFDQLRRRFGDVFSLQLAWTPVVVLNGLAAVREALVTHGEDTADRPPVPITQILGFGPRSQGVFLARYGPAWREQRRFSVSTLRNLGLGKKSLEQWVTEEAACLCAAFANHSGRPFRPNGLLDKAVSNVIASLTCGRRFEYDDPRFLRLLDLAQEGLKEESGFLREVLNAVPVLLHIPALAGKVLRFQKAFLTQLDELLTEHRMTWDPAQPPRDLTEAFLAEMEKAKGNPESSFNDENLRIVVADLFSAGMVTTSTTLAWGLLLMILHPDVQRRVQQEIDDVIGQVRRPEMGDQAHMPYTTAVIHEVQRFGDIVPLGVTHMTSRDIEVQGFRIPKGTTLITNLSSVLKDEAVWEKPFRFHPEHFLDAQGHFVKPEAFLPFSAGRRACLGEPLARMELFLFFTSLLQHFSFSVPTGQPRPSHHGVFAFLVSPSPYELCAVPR

Chain of Cytochrome P450 2C19 (P33261 whole entry): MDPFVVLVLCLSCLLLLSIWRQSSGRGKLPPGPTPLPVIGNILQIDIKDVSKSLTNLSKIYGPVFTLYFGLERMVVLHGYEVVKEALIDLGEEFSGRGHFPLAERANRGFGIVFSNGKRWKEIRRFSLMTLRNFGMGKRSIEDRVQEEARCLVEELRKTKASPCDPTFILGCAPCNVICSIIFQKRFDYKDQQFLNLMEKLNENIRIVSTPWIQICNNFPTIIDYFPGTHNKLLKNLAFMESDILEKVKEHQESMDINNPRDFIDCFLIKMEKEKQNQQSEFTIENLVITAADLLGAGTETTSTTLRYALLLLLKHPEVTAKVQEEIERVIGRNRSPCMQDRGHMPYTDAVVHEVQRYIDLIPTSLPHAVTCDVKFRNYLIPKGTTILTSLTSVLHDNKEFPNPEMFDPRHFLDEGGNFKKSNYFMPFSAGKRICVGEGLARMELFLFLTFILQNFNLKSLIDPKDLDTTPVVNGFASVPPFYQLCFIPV
Chain of Cytochrome P450 2C9 (P11712 whole entry): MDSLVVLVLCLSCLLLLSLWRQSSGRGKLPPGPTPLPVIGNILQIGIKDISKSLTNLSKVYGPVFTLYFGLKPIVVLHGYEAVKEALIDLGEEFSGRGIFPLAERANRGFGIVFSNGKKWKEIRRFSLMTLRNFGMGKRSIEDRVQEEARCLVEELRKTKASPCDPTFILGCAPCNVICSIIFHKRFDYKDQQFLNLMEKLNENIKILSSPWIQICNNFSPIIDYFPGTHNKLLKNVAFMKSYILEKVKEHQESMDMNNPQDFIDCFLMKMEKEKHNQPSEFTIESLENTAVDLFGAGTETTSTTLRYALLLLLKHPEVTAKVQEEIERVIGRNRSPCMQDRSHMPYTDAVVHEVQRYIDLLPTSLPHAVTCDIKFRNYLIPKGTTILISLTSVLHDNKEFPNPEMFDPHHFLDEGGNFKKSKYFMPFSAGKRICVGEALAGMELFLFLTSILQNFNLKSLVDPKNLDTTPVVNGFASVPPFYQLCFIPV
Chain of P-gp (ABCB1) (P08183 whole entry): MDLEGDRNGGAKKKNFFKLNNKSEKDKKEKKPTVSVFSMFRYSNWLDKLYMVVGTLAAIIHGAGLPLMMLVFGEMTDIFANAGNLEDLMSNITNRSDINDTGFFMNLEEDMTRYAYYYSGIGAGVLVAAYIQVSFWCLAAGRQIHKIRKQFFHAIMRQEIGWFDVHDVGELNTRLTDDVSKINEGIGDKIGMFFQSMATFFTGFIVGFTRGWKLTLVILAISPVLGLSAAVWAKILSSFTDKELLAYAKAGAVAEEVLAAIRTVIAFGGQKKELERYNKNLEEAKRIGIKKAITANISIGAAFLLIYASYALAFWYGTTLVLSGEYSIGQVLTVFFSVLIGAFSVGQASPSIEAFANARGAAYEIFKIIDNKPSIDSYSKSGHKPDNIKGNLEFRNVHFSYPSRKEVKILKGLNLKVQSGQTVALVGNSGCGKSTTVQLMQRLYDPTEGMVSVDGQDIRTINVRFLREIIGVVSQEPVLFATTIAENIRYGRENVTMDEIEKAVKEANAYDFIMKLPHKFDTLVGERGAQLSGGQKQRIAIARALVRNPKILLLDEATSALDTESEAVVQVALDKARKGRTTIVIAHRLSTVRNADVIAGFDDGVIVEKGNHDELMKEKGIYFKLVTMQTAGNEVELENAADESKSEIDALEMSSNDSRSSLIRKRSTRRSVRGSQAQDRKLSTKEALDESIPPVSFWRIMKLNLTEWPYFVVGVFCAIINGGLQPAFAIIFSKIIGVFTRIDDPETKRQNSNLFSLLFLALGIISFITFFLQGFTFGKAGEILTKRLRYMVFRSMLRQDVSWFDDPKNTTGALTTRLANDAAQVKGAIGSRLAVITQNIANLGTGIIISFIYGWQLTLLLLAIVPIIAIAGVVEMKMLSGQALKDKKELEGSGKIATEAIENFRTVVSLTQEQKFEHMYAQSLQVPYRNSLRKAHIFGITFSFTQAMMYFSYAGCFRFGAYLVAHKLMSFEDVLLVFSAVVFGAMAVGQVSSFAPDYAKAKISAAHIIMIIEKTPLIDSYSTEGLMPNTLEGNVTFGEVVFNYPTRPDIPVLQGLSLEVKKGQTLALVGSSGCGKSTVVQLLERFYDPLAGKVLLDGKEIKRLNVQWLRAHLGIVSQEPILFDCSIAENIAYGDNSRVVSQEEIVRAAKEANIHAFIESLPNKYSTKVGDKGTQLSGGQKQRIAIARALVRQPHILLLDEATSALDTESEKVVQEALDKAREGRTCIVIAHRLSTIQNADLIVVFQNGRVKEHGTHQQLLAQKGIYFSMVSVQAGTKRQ
Chain of Voltage-gated inwardly rectifying potassium channel KCNH2 (Q12809 whole entry): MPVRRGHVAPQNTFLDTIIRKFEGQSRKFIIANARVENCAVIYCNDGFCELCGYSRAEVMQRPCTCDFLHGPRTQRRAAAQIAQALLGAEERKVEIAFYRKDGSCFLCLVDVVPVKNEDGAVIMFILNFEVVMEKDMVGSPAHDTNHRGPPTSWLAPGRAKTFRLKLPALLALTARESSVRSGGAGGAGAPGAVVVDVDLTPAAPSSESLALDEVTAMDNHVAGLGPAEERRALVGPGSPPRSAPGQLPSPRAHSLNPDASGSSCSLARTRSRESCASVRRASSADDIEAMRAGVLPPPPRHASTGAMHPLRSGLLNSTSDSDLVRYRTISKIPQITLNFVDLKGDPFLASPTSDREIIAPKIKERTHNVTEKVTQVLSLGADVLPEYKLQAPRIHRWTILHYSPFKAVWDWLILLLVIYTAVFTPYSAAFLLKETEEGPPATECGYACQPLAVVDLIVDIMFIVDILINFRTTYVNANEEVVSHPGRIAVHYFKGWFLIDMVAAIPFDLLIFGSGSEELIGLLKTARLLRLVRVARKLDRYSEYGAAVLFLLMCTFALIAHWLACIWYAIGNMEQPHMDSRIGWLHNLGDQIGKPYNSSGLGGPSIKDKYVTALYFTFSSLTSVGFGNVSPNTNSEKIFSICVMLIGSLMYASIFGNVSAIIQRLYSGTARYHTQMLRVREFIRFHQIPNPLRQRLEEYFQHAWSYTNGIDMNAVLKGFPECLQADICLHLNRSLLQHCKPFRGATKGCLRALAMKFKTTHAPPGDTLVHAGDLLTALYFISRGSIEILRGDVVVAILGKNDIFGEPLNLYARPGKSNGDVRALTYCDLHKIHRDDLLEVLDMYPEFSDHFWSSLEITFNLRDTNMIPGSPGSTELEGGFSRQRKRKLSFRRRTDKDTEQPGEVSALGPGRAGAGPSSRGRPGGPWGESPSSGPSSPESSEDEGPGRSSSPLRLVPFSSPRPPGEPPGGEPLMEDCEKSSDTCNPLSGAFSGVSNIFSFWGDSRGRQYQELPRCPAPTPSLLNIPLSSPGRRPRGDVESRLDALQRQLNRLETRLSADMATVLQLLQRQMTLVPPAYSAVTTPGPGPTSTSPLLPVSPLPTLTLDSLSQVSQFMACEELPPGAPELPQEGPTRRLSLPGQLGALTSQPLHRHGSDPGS

Take `O=C(c1cc(F)cc(Cl)c1)N1CCn2nc(-c3ccc(F)cn3)cc2C1`: the IC50 was above 40 µM at Cytochrome P450 1A2; above 40 µM at Cytochrome P450 2A6; above 40 µM on Cytochrome P450 2C19; 0.075 µM in data set [1]; 15 µM in [2]; above 40 µM at Cytochrome P450 2C9. The IC50 at Cytochrome P450 2D6 was above 40 µM. Moreover, the efflux ratio at P-gp (ABCB1) came out at 1.2. For the same molecule, the Papp in data set [3] was 37 ×10⁻⁶ cm/s. Further, the Activity entry in [4] is reported as “Not Active”.
